Reference: PubChem BioAssay (NCI)
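Results reflect a 48-hour exposure of cells in 96-well plates to compound at five concentrations. GI50 = concentration required for 50% inhibition of growth. TGI marks complete inhibition of growth.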

Legend:
Experiment in all cases: growth of human tumour cells (NCI), 48 h
MDA-MB-435 = test system: MDA-MB-435
K-562 leukemia = test system: K-562 leukemia
OVCAR-4 ovarian = test system: OVCAR-4 ovarian
HCT-116 colon = test system: HCT-116 colon
COLO 205 colon = test system: COLO 205 colon
M14 melanoma = test system: M14 melanoma
A549 NSCLC = test system: A549 NSCLC
SK-MEL-2 melanoma = test system: SK-MEL-2 melanoma
UO-31 renal = test system: UO-31 renal
CAKI-1 renal = test system: CAKI-1 renal
OVCAR-5 ovarian = test system: OVCAR-5 ovarian
U251 CNS = test system: U251 CNS
SF-295 CNS = test system: SF-295 CNS
HOP-92 NSCLC = test system: HOP-92 NSCLC
MALME-3M melanoma = test system: MALME-3M melanoma
DU-145 prostate = test system: DU-145 prostate
ACHN renal = test system: ACHN renal
CCRF-CEM leukemia = test system: CCRF-CEM leukemia
UACC-62 melanoma = test system: UACC-62 melanoma
MCF7 breast = test system: MCF7 breast
SW-620 colon = test system: SW-620 colon
OVCAR-3 ovarian = test system: OVCAR-3 ovarian
HL-60(TB) leukemia = test system: HL-60(TB) leukemia
SK-OV-3 ovarian = test system: SK-OV-3 ovarian
NCI-H460 lung = test system: NCI-H460 lung
IGROV1 ovarian = test system: IGROV1 ovarian
SK-MEL-5 melanoma = test system: SK-MEL-5 melanoma
786-0 renal = test system: 786-0 renal
HT29 colon = test system: HT29 colon
SF-268 CNS = test system: SF-268 CNS
HCT-15 colon = test system: HCT-15 colon
SR leukemia = test system: SR leukemia
NCI/ADR-RES ovarian = test system: NCI/ADR-RES ovarian
UACC-257 melanoma = test system: UACC-257 melanoma
HS 578T breast = test system: HS 578T breast
KM12 colon = test system: KM12 colon
SNB-75 CNS = test system: SNB-75 CNS
SK-MEL-28 melanoma = test system: SK-MEL-28 melanoma
EKVX NSCLC = test system: EKVX NSCLC
HCC-2998 colon = test system: HCC-2998 colon
NCI-H522 lung = test system: NCI-H522 lung
PC-3 prostate = test system: PC-3 prostate
OVCAR-8 ovarian = test system: OVCAR-8 ovarian
NCI-H23 lung = test system: NCI-H23 lung
HOP-62 NSCLC = test system: HOP-62 NSCLC
SF-539 CNS = test system: SF-539 CNS
SNB-19 CNS = test system: SNB-19 CNS
SN12C renal = test system: SN12C renal
T-47D breast = test system: T-47D breast
MOLT-4 leukemia = test system: MOLT-4 leukemia
RXF 393 renal = test system: RXF 393 renal
TK-10 renal = test system: TK-10 renal
LOX IMVI melanoma = test system: LOX IMVI melanoma
MDA-MB-231 breast = test system: MDA-MB-231 breast

CSC(=NC#N)S/C=C/C(=O)c1ccc(Cl)cc1 was tested, and the TGI (MDA-MB-435) was 64.3 µM, the TGI (K-562 leukemia) was > 100 µM and the TGI (OVCAR-4 ovarian) was > 100 µM. The TGI (HCT-116 colon) was 34.5 µM, the TGI (COLO 205 colon) was 71.6 µM and the TGI (M14 melanoma) was 45.1 µM. The TGI (A549 NSCLC) was > 100 µM, the TGI (SK-MEL-2 melanoma) was 45 µM and the TGI (UO-31 renal) was 45.4 µM. The TGI (CAKI-1 renal) was 35.6 µM, the TGI (OVCAR-5 ovarian) was 99.8 µM and the TGI (U251 CNS) was > 100 µM. For the same molecule, the TGI (SF-295 CNS) was 95.5 µM, the TGI (HOP-92 NSCLC) was > 100 µM and the TGI (MALME-3M melanoma) was 55.5 µM. The TGI (DU-145 prostate) was > 100 µM, the TGI (ACHN renal) was > 100 µM and the TGI (CCRF-CEM leukemia) was > 100 µM. For the same molecule, the TGI (UACC-62 melanoma) was 74.4 µM, the TGI (MCF7 breast) was 79.3 µM and the TGI (SW-620 colon) was 40.6 µM. The TGI (OVCAR-3 ovarian) was 34.7 µM, the TGI (HL-60(TB) leukemia) was > 100 µM and the TGI (SK-OV-3 ovarian) was > 100 µM. The TGI (NCI-H460 lung) was > 100 µM, the TGI (IGROV1 ovarian) was 44.2 µM and the TGI (SK-MEL-5 melanoma) was 32.7 µM. For the same molecule, the TGI (786-0 renal) was 40.8 µM, the TGI (HT29 colon) was 46.4 µM and the TGI (SF-268 CNS) was 62.2 µM. The TGI (HCT-15 colon) was > 100 µM, the TGI (SR leukemia) was 12.6 µM and the TGI (NCI/ADR-RES ovarian) was 63.1 µM. The TGI (UACC-257 melanoma) was 52.2 µM, the TGI (HS 578T breast) was 75.9 µM and the TGI (KM12 colon) was > 100 µM. The TGI (SNB-75 CNS) was > 100 µM, the TGI (SK-MEL-28 melanoma) was 46.5 µM and the TGI (EKVX NSCLC) was > 100 µM. For the same molecule, the TGI (HCC-2998 colon) was > 100 µM, the TGI (NCI-H522 lung) was 38.5 µM and the TGI (PC-3 prostate) was > 100 µM. For the same molecule, the TGI (OVCAR-8 ovarian) was 47.4 µM, the TGI (NCI-H23 lung) was 52.4 µM and the TGI (HOP-62 NSCLC) was > 100 µM. The TGI (SF-539 CNS) was 52.3 µM, the TGI (SNB-19 CNS) was > 100 µM and the TGI (SN12C renal) was 84.7 µM. For the same molecule, the TGI (T-47D breast) was 75.1 µM, the TGI (MOLT-4 leukemia) was > 100 µM and the TGI (RXF 393 renal) was 42.4 µM. For the same molecule, the TGI (TK-10 renal) was 58.5 µM.
CCC(=O)OC1CCC2C3CCC(=O)OC3C(C)(CCC(=O)O)CC12C (stereo not drawn) gave a GI50 (MDA-MB-435) of 2.24 µM, a TGI (MDA-MB-435) of 13.2 µM and a GI50 (OVCAR-4 ovarian) of 6.61 µM. The TGI (OVCAR-4 ovarian) was > 100 µM, the GI50 (HCT-116 colon) was 3.62 µM and the TGI (HCT-116 colon) was > 100 µM. For the same molecule, the GI50 (COLO 205 colon) was 3.48 µM, the TGI (COLO 205 colon) was 69.1 µM and the GI50 (M14 melanoma) was 3.59 µM. For the same molecule, the TGI (M14 melanoma) was > 100 µM, the GI50 (A549 NSCLC) was 3.81 µM and the TGI (A549 NSCLC) was > 100 µM. For the same molecule, the GI50 (SK-MEL-2 melanoma) was 1.86 µM, the TGI (SK-MEL-2 melanoma) was > 100 µM and the GI50 (UO-31 renal) was 0.494 µM. The TGI (UO-31 renal) was > 100 µM, the GI50 (CAKI-1 renal) was 3.22 µM and the TGI (CAKI-1 renal) was 15.9 µM. For the same molecule, the GI50 (OVCAR-5 ovarian) was 5.6 µM, the TGI (OVCAR-5 ovarian) was > 100 µM and the GI50 (U251 CNS) was 3.11 µM. The TGI (U251 CNS) was 45.3 µM, the GI50 (SF-295 CNS) was 1.16 µM and the TGI (SF-295 CNS) was 2.68 µM. For the same molecule, the GI50 (HOP-92 NSCLC) was 0.997 µM, the TGI (HOP-92 NSCLC) was 4.76 µM and the GI50 (LOX IMVI melanoma) was 3.87 µM. For the same molecule, the TGI (LOX IMVI melanoma) was > 100 µM, the GI50 (MALME-3M melanoma) was 2.76 µM and the TGI (MALME-3M melanoma) was > 100 µM. For the same molecule, the GI50 (DU-145 prostate) was 3.59 µM, the TGI (DU-145 prostate) was 19.1 µM and the GI50 (ACHN renal) was 4.74 µM. For the same molecule, the TGI (ACHN renal) was > 100 µM, the GI50 (CCRF-CEM leukemia) was 0.374 µM and the TGI (CCRF-CEM leukemia) was > 100 µM. For the same molecule, the GI50 (UACC-62 melanoma) was 3 µM, the TGI (UACC-62 melanoma) was > 100 µM and the GI50 (MCF7 breast) was 1.61 µM. The TGI (MCF7 breast) was > 100 µM, the GI50 (MDA-MB-231 breast) was 1.45 µM and the TGI (MDA-MB-231 breast) was 6.28 µM. For the same molecule, the GI50 (SW-620 colon) was 2.87 µM, the TGI (SW-620 colon) was > 100 µM and the GI50 (OVCAR-3 ovarian) was 2.16 µM. For the same molecule, the TGI (OVCAR-3 ovarian) was 10.5 µM, the GI50 (SK-OV-3 ovarian) was 2.47 µM and the TGI (SK-OV-3 ovarian) was > 100 µM. For the same molecule, the GI50 (NCI-H460 lung) was 2.04 µM, the TGI (NCI-H460 lung) was > 100 µM and the GI50 (IGROV1 ovarian) was 2.47 µM. The TGI (IGROV1 ovarian) was 16.2 µM, the GI50 (SK-MEL-5 melanoma) was 3.9 µM and the TGI (SK-MEL-5 melanoma) was > 100 µM. For the same molecule, the GI50 (786-0 renal) was 5.49 µM, the TGI (786-0 renal) was > 100 µM and the GI50 (HT29 colon) was 3.86 µM. The TGI (HT29 colon) was > 100 µM, the GI50 (SF-268 CNS) was 3.6 µM and the TGI (SF-268 CNS) was > 100 µM. The GI50 (HCT-15 colon) was 2.83 µM, the TGI (HCT-15 colon) was > 100 µM and the GI50 (NCI/ADR-RES ovarian) was 2.54 µM. For the same molecule, the TGI (NCI/ADR-RES ovarian) was > 100 µM, the GI50 (UACC-257 melanoma) was 5.73 µM and the TGI (UACC-257 melanoma) was > 100 µM. For the same molecule, the GI50 (HS 578T breast) was 1.63 µM, the TGI (HS 578T breast) was 7.93 µM and the GI50 (KM12 colon) was 2.59 µM. For the same molecule, the TGI (KM12 colon) was > 100 µM, the GI50 (SNB-75 CNS) was 2.87 µM and the TGI (SNB-75 CNS) was > 100 µM. The GI50 (SK-MEL-28 melanoma) was 3.81 µM, the TGI (SK-MEL-28 melanoma) was > 100 µM and the GI50 (EKVX NSCLC) was 2.08 µM. For the same molecule, the TGI (EKVX NSCLC) was > 100 µM, the GI50 (HCC-2998 colon) was 3.53 µM and the TGI (HCC-2998 colon) was > 100 µM. The GI50 (NCI-H522 lung) was 2.08 µM, the TGI (NCI-H522 lung) was > 100 µM and the GI50 (PC-3 prostate) was 2.36 µM. For the same molecule, the TGI (PC-3 prostate) was > 100 µM, the GI50 (OVCAR-8 ovarian) was 3.49 µM and the TGI (OVCAR-8 ovarian) was > 100 µM. For the same molecule, the GI50 (NCI-H23 lung) was 3.35 µM, the TGI (NCI-H23 lung) was > 100 µM and the GI50 (HOP-62 NSCLC) was 7.49 µM. The TGI (HOP-62 NSCLC) was > 100 µM, the GI50 (SF-539 CNS) was 2.1 µM and the TGI (SF-539 CNS) was 17.4 µM. For the same molecule, the GI50 (T-47D breast) was 0.929 µM, the TGI (T-47D breast) was 6.16 µM and the GI50 (RXF 393 renal) was 0.617 µM. The TGI (RXF 393 renal) was > 100 µM, the GI50 (TK-10 renal) was 3.46 µM and the TGI (TK-10 renal) was 21.9 µM.
